{
  "source": "patent US9908908B2",
  "about": "“Tenofovir prodrug and pharmaceutical uses thereof” (Jiangsu Hansoh Pharmaceutical Co., Ltd., priority 2012, dated 2018)",
  "key": {"HIV-1 (IIIb)": {"test_system": "HIV-1 (IIIb)", "experiment": "microbe, parasite or virus in culture", "type": "cell-based", "description": "1) MT-2 cells were infected with HIV-1 (IIIb) to form multiplicity of infection (MOI) 0.01 TCID50 per cell.\n2) The mixture of virus and cells was incubated in a 384-well plate for 3 days.\n4) The supernatant was transferred to a new plate and incubated with reporter cells (HeLa) for 24 hours.\n5) Detecting beta-GAL activity to evaluate anti-HIV activity.\n(§1) 7) The antiviral activity and cytotoxicity were calculated according to the following equation: Antiviral activity (%)=100−(Detection value−Maximum value)/(Minimum value−Maximum value)*100 Cytotoxicity (%)=100−(Detection value−Maximum value)/(Minimum value−Maximum value)*100 8) EC50 and CC50 were calculated with Fit Curve of Graphpad Prism 5 (the results are shown in Table 4)."}, "[1]": {"experiment": "Stability test in acidic medium (hydrochloric acid solution pH 2.0)", "type": "physicochemical", "description": "4.5 mL of 36% hydrochloric acid was transferred into a 1 L volumetric flask and diluted with water to 1 L to prepare a stock solution. Then 10 mL of the above solution was transferred into a 50 mL volumetric flask and diluted with water to 50 mL to prepare the hydrochloric acid solution with pH 2.0.\n5.0 mg of GS-7340 were transferred into a 5 mL volumetric flask and mixed with 2.5 mL of isopropyl alcohol to dissolve GS-7340, and then the hydrochloric acid solution (pH 2.0) was added to 5 mL. The solution was shaken well and filtered for using.\n5.0 mg of compound Ia1 were transferred into a 5 mL volumetric flask and mixed with 2.5 mL of isopropyl alcohol to dissolve compound Ia1, and then the hydrochloric acid solution (pH 2.0) was added to 5 mL. The solution was shaken well and filtered for using.\n(§2) The prepared sample was filled into the chromatography vial as the initial sample and immediately injected. Meanwhile, the rest of the samples were put into a 37° C. incubator, and were injected into the HPLC system after 6 hours."}, "[2]": {"experiment": "Cytotoxicity in cells free of virus (anti-HIV test)", "type": "cell-based", "conditions": "human; cells free of virus, 3 days, luminescent signal; read-out: Toxicity CC50", "description": "(§3) 3) Cells for the cytotoxic detection were incubated in a 384-well plate for 3 days.\n(§4) 6) Luminescent signal of the cells free of virus was detected to evaluate cytotoxicity after incubation for 3 days.\nas §1"}, "MT-2 cells": {"test_system": "MT-2 cells", "experiment": "Cytotoxicity in cells free of virus (anti-HIV test)", "type": "cell-based", "description": "as §3, §4, §1"}, "[3]": {"experiment": "Stability test in simulated gastric juice (pepsin, pH 2.0)", "type": "physicochemical", "description": "10 ml of the stock solution and 500.0 mg of pepsin were transferred into a 50 mL volumetric flask and diluted with water to 50 ml, which was then subjected to ultrasound to dissolve the pepsin (the solution was not clear now) and then filtered to give a clear solution as simulated gastric juice.\n5.0 mg of GS-7340 were transferred into a 5 mL volumetric flask and mixed with 2.5 mL of isopropyl alcohol to dissolve GS-7340, and then the simulated gastric juice was added to 5 mL. The solution was shaken well and filtered for using.\n5.0 mg of compound Ia1 were transferred into a 5 mL volumetric flask and mixed with 2.5 mL of isopropyl alcohol to dissolve compound Ia1, and then the simulated gastric juice was added to 5 mL. The solution was shaken well and filtered for using.\nas §2"}, "hepatitis B virus (HBV)": {"test_system": "hepatitis B virus (HBV)", "experiment": "In vitro anti-hepatitis B virus activity (HBV DNA-replication, dot blot)", "type": "cell-based", "description": "HepG 2.2.15 cell was used as the hepatitis B virus (HBV) vehicle to determine the inhibition effect of the compounds on DNA-replication of HBV.\nTest method: HepG 2.2.15 cells were seeded into a 96-well culture plate. Various dilutions of test samples and positive control were added, respectively, after 24 hours, in which a cell control well was set. The medium was replaced with culture containing various dilutions of test samples after 72 hours. The supernatants and HepG 2.2.15 cells were collected after 6 days of culture."}, "[4]": {"experiment": "Metabolic stability in fresh human whole blood and distribution test in PBMCs", "type": "in vitro ADME", "description": "Different tenofovir prodrugs were incubated together with fresh human whole blood at 37° C. Plasma and PBMCs were separated, respectively, from the whole blood (Ficoll density gradient centrifugation method) after 1 hour and 2 hours incubation to determine the concentrations of prototype drug and metabolite-tenofovir in plasma and PBMCs. The PBMCs were counted via cell counter and each PBMC was treated as 200 fL to calculate intracellular drug concentration.\n20 μL of internal standard solution (400 ng/mL SN-38 solution), […], methanol-water (50:50, v/v), and 200 μL acetonitrile were added to 100 μL plasma sample or PBMC sample, respectively. The mixture was mixed by vortex for 1 min and centrifuged for 5 min (14000 rpm). 20 μL supernatant and 180 μl mobile phase were mixed by vortex for 1 min, and 10 μL of the above mixture was injected into LC/MS/MS for analysis."}, "HepG 2.2.15 cells": {"test_system": "HepG 2.2.15 cells", "experiment": "Cytotoxicity test (CellTiter-Blue)", "type": "cell-based", "description": "(§5) Test method: HepG 2.2.15 cells were seeded into a 96-well culture plate and various dilutions of test samples and positive control were added, respectively. CellTiter-Blue (Promega, Catalog #G8081) was added for 6 days of culture."}, "[5]": {"experiment": "Cytotoxicity test (CellTiter-Blue)", "type": "cell-based", "conditions": "human; HepG 2.2.15 cells, 6 days of culture; read-out: Toxicity CC50", "description": "as §5"}, "[6]": {"conditions": "Acid medium (pH = 2), 37° C., 6 hours"}},
  "data": [
    {"smiles": "CC(C)OC(=O)C(C)(C)N[P@](=O)(CO[C@H](C)Cn1cnc2c(N)ncnc21)Oc1ccccc1", "note": "[Ia1]", "values": [
      {"measurement": "inhibitory effect on HIV virus (in words)", "setting": "HIV-1 (IIIb)", "value": "strong inhibitory effect"},
      {"measurement": "EC50", "setting": "HIV-1 (IIIb); Human immunodeficiency virus 1, IIIB, MT2, 72 h", "value": 8, "unit": "nM"},
      {"measurement": "Change value", "setting": "[1]; [6]", "value": 0.6, "unit": "%"},
      {"measurement": "Purity after 6 hours", "setting": "[1]; [6]", "value": 98.1, "unit": "%"},
      {"measurement": "Initial purity", "setting": "[1]; Acid medium (pH = 2), initial sample", "value": 98.7, "unit": "%"},
      {"measurement": "stability compared to GS-7340 (in words)", "setting": "[1]; acid medium and simulated gastric juice", "value": "significantly improved"},
      {"measurement": "CC50 at 3 days", "setting": "[2]", "value": "> 150000", "unit": "nM"},
      {"measurement": "cytotoxicity (in words)", "setting": "MT-2 cells", "value": "no cytotoxicity"},
      {"measurement": "Change value", "setting": "[3]; 37° C., 6 hours", "value": 0.5, "unit": "%"},
      {"measurement": "Purity after 6 hours", "setting": "[3]; 37° C., 6 hours", "value": 98.2, "unit": "%"},
      {"measurement": "Initial purity", "setting": "[3]; initial sample", "value": 98.7, "unit": "%"},
      {"measurement": "inhibitory effect on HBV-DNA replication (in words)", "setting": "hepatitis B virus (HBV); HepG 2.2.15 cells", "value": "significant inhibitory effect"},
      {"measurement": "inhibitory effect on HBV-DNA replication compared with positive control GS7340", "setting": "hepatitis B virus (HBV); HepG 2.2.15 cells", "value": "better than that of the positive control GS7340"},
      {"measurement": "IC50", "setting": "hepatitis B virus (HBV); Hepatitis B virus, HepG2.2.15, 144 h", "value": 5, "unit": "nM"},
      {"measurement": "Prototype concentration", "setting": "[4]; 0 hour, initial concentration, fresh human whole blood", "value": 12.4, "unit": "µM"},
      {"measurement": "Prototype concentration", "setting": "[4]; 1 hour incubation at 37° C., in PBMCs", "value": 1528, "unit": "µM"},
      {"measurement": "Prototype concentration", "setting": "[4]; 1 hour incubation at 37° C., in plasma", "value": 12.3, "unit": "µM"},
      {"measurement": "change of active metabolite-tenofovir concentration in PBMCs over the incubation time (in words)", "setting": "[4]; 1 hour to 2 hours", "value": "increased significantly"},
      {"measurement": "Prototype concentration", "setting": "[4]; 2 hour incubation at 37° C., in PBMCs", "value": 1282, "unit": "µM"},
      {"measurement": "Prototype concentration", "setting": "[4]; 2 hour incubation at 37° C., in plasma", "value": 12.2, "unit": "µM"},
      {"measurement": "concentration of active metabolite-tenofovir in PBMCs relative to GS-7340", "setting": "[4]; after incubation for 2 hours", "value": "about three times"},
      {"measurement": "active metabolite-tenofovir detected in plasma (in words)", "setting": "[4]; after incubation with fresh human whole blood", "value": "no active metabolite-tenofovir was detected"},
      {"measurement": "stability in plasma (in words)", "setting": "[4]; fresh human whole blood, compared with GS-7340", "value": "significantly better than the positive control GS-7340"},
      {"measurement": "cytotoxicity (in words)", "setting": "HepG 2.2.15 cells", "value": "without cytotoxicity"},
      {"measurement": "CC50 at 6 days", "setting": "[5]", "value": "> 10000", "unit": "nM"}
    ]}
  ]
}
